Laboratory results published in patent US20180249707A1, “METHOD OF CONTROLLING ALGAE IN A BODY OF WATER” (priority 2013, published 2018).

Legend:
Microcystis aeruginosa = experiment: 15-day flask exposure of Microcystis aeruginosa to DDA and Cutrine-Plus; type: cell-based; conditions: for Cell Densities of Microcystis aeruginosa 15 days after: initial 4.5×10^4 cells/mL
Description: (§1) The experiment was conducted for 15 days and was initiated using 100 mL BG-11 medium contained in 200 mL flasks. […] The experiment was initiated by exposing the algae to 0.1, 0.2, 0.4, 0.8, and 1.6 mg/L as DDA, 0.2, 0.6, 1.0 mg Cu/L Cutrine®-Plus, and combinations of DDA and Cutrine®-Plus. […] The solution was heated in a water bath and diluted to 70 mg/L using warmed deionized water. The concentration of DMSO was approximately 350 mg/L in the test beakers. Cutrine®-Plus stock solution was made at 50 mg/L using deionized water. Three replicates of each exposure concentration, along with three replicates of an untreated reference were tested. Each sample was Maintained at room temperature with 12-hours of light and 12-hours dark photo period.

[1] = Solubility remark on stock solution preparation; type: physicochemical; conditions: stock solution made using 2% DMSO solution, heated
Cladophora sp. = experiment: 15-day flask exposure of Cladophora sp. to DDA and Cutrine-Plus; type: cell-based; conditions: at concentrations comparable to Cutrine-Plus
Description: as §1, with “and 12-h” for “and 12-hours”, “dark photoperiod. […] 15 days after exposure. The Bars in FIG. 3 sharing the same letter are not different according to Fishers Protected LSD test at p≤0.05 significance level.” for “dark photo period.”

M. aeruginosa UTEX 2385 = experiment: MIC 96-well microtiter plate assay in BG-11, 10 days; type: cell-based, Microcystis aeruginosa; conditions: 10 days, initial 0.1 ug/L
Description: MICs for the samples against M. aeruginosa were determined in a standard 96-well microtiter plate assay in BG-11 with a starting inoculum of ˜1×10^5 cells/mL. Algae plates were incubated for 10 days. MIC concentrations were determined visually, in vivo chlorophyll a was determined fluorometrically, and cell density was determined via direct counting. Samples were tested in duplicate.

SMILES: CCCCCCCCCCCCN [dodecylamine]
- log reduction in M. aeruginosa cells (Microcystis aeruginosa; 0.4 mg/L, 15 days after start, compared to untreated reference): 1 log
- Chlorophyll a content of M. aeruginosa compared to untreated reference algae (Microcystis aeruginosa; 0.2 to 1.6 ppm (mg/L), 15 days after start, p<0.01): reduced
- Cell Densities of Microcystis aeruginosa 15 days after (Microcystis aeruginosa; DDA 0.1 mg/L, 15 days): 5.2 × 10^6 cells/mL
- Cell Densities of Microcystis aeruginosa 15 days after (Microcystis aeruginosa; DDA 0.2 mg/L, 15 days): 6.7 × 10^6 cells/mL
- Cell Densities of Microcystis aeruginosa 15 days after (Microcystis aeruginosa; DDA 0.4 mg/L, 15 days): 8.0 × 10^5 cells/mL
- Cell Densities of Microcystis aeruginosa 15 days after (Microcystis aeruginosa; DDA 0.8 mg/L, 15 days): <10000 cells/mL
- Cell Densities of Microcystis aeruginosa 15 days after (Microcystis aeruginosa; DDA 1.6 mg/L, 15 days): <10000 cells/mL
- concentration necessary to achieve similar results as Cutrine-Plus (cell count data) (Microcystis aeruginosa; M. aeruginosa control, 15 days): 0.8 mg/L
- effectiveness as an algaecide on Microcystis aeruginosa (Microcystis aeruginosa; at concentrations comparable to Cutrine-Plus): effective
- solubility [1]: low solubility
- effectiveness as an algaecide on Cladophora sp. (Cladophora sp.): effective
- In vivo chlorophyll a of M. aeruginosa (M. aeruginosa UTEX 2385; 0.031 active ppm): 7.85 µg/L
- In vivo chlorophyll a of M. aeruginosa (M. aeruginosa UTEX 2385; 0.063 active ppm): 5.75 µg/L
- In vivo chlorophyll a of M. aeruginosa (M. aeruginosa UTEX 2385; 0.125 active ppm): 2.60 µg/L
- In vivo chlorophyll a of M. aeruginosa (M. aeruginosa UTEX 2385; 0.25 active ppm): 0.35 µg/L
- In vivo chlorophyll a of M. aeruginosa (M. aeruginosa UTEX 2385; 0.5 active ppm): 0.00 µg/L
